In patent publication US11845746B1 (priority 2023, dated 2023):

Row | melting point [°C] | Compound
1 | 163 to 164 | CCOC(=O)c1cc(C(=O)c2ccc(F)cc2)n2c1ccc1cc(C)ccc12
2 | 180 to 181 | CCOC(=O)c1cc(C(=O)c2ccc(Br)cc2)n2c1ccc1cc(C)ccc12 [Compound 4e, Ethyl 1-(4-bromobenzoyl)-7-methylpyrrolo[1,2-a]quinoline-3-carboxylate]
3 | 223 to 224 | CCOC(=O)c1cc(C(=O)c2cc(C(F)(F)F)cc(C(F)(F)F)c2)n2c1ccc1cc(C)ccc12 [Compound 4f, Ethyl 1-(3,5-bis(trifluoromethyl)benzoyl)-7-methylpyrrolo[1,2-a]quinoline-3-carboxylate]
4 | 139 to 140 | CCOC(=O)c1cc(C(=O)c2ccccc2)n2c1ccc1cc(C)ccc12
5 | 174 to 175 | CCOC(=O)c1cc(C(=O)c2ccccc2[N+](=O)[O-])n2c1ccc1cc(C)ccc12 [Compound 4d, Ethyl 7-methyl-1-(2-nitrobenzoyl)pyrrolo[1,2-a]quinoline-3-carboxylate]
6 | 155 to 156 | CCOC(=O)c1cc(C(=O)c2ccc(C)cc2)n2c1ccc1cc(C)ccc12
